Results as given in ChEMBL document CHEMBL1141969, “2-Cyano-4-fluoro-1-thiovalylpyrrolidine analogues as potent inhibitors of DPP-IV” (Bioorg Med Chem Lett, 2005).

Assays:
Prolyl endopeptidase FAP = target: T1, Prolyl endopeptidase FAP (Homo sapiens, UniProt Q12884); test: Inhibitory activity against recombinant seprase
T1 sequence (Q12884 whole entry): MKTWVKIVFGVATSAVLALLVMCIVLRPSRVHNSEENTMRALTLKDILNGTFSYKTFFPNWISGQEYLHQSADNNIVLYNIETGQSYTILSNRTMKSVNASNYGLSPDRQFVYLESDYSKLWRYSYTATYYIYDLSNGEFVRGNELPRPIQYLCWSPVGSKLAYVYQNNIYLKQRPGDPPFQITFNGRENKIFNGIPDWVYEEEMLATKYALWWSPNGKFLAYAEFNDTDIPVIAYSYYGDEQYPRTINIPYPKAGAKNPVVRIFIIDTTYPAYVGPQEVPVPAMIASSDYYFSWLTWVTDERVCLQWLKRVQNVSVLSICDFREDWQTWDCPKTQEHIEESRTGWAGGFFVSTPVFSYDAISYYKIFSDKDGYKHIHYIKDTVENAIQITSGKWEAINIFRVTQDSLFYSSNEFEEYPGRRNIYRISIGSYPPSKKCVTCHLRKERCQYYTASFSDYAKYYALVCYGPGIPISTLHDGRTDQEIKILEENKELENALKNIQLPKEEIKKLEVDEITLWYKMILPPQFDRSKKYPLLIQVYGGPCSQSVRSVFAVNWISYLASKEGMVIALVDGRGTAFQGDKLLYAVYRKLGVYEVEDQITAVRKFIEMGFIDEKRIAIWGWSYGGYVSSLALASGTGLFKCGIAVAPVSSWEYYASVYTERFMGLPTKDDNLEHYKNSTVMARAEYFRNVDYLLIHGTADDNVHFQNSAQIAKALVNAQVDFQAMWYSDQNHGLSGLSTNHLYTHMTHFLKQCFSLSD

Dipeptidyl peptidase 2 = Dipeptidyl peptidase 2 (Homo sapiens, UniProt Q9UHL4); test: Inhibitory activity against recombinant DPP2
Canis familiaris = test: Gastro-Intestinal toxicity in dog at 10 mg/kg, po; format: organism-based, Canis lupus familiaris; parameters: dose 10 mg/kg, route oral; details: in vivo
[1] = Oral bioavailability in rat, po; format: ADME, organism-based; details: in vivo
Homo sapiens = species: Homo sapiens; test: Inhibition of cytochrome P450
[2] = Half life in rat; format: ADME, organism-based; details: in vivo
[3] = Half life in dog; format: ADME, organism-based, Canis lupus familiaris; details: in vivo
[4] = Oral bioavailability in rat; format: ADME, organism-based; details: in vivo
[5] = Oral bioavailability in dog; format: ADME, organism-based, Canis lupus familiaris; details: in vivo
[6] = Half life cyclization at 37 C, pH 7.2; format: ADME

SMILES	Ki (Prolyl endopeptidase FAP) [µM]	Ki (Dipeptidyl peptidase 2) [µM]	other results
CC(C)(SCCc1ccccc1)[C@H](N)C(=O)N1C[C@@H](F)C[C@H]1C#N	> 23.4		
COc1cccc(CS(=O)(=O)C(C)(C)[C@H](N)C(=O)N2C[C@@H](F)C[C@H]2C#N)c1		> 22.4	
CC(C)([C@H](N)C(=O)N1C[C@@H](F)C[C@H]1C#N)S(=O)(=O)Cc1ccncc1	> 23.4	> 22.4	
CC(C)(SCc1cccnc1)[C@H](N)C(=O)N1C[C@@H](F)C[C@H]1C#N	> 23.4	> 22.4	
CC(C)([C@H](N)C(=O)N1C[C@@H](F)C[C@H]1C#N)S(=O)(=O)Cc1ccccc1	> 23.4	> 22.4	
CC(C)([C@H](N)C(=O)N1C[C@@H](F)C[C@H]1C#N)S(=O)(=O)O		> 22.4	
CC(C)(SCc1ccncc1)[C@H](N)C(=O)N1C[C@@H](F)C[C@H]1C#N		> 22.4	
CC(C)([C@H](N)C(=O)N1C[C@@H](F)C[C@H]1C#N)S(=O)(=O)Cc1ccc(F)cc1	> 23.4	> 22.4	
COc1ccc(CS(=O)(=O)C(C)(C)[C@H](N)C(=O)N2CCC[C@H]2C#N)cc1			IC50 (Homo sapiens): > 15 µM; half-life [2]: 4.2 h; half-life [3]: 3 h; bioavailability [4]: 4%; bioavailability [5]: 100%; half-life [6]: 360 h
COc1ccc(CS(=O)(=O)C(C)(C)[C@H](N)C(=O)N2C[C@@H](F)C[C@H]2C#N)cc1	> 23.4	> 22.4	IC50 (Homo sapiens): > 15 µM; half-life [2]: 2.3 h; half-life [3]: 3.9 h
CC(C)([C@H](N)C(=O)N1C[C@@H](F)C[C@H]1C#N)S(=O)(=O)Cc1ccc(OCc2ccccc2)cc1		> 22.4	
CC(C)(SCc1ccc(C(F)(F)F)cc1)[C@H](N)C(=O)N1C[C@@H](F)C[C@H]1C#N	> 23.4		
CC(=O)NCSC(C)(C)[C@H](N)C(=O)N1C[C@@H](F)C[C@H]1C#N		> 22.4	
COc1ccc(CSC(C)(C)[C@H](N)C(=O)N2C[C@@H](F)C[C@H]2C#N)cc1	> 23.4		

Now from value to molecule, other results behind:

Ki (Prolyl endopeptidase FAP) [µM]	Ki (Dipeptidyl peptidase 2) [µM]	SMILES	other results
	> 22.4	CC(C)([C@H](N)C(=O)N1C[C@@H](F)C[C@H]1C#N)S(=O)(=O)Cc1csc2ccc(Cl)cc12	
	> 22.4	CC(C)([C@H](N)C(=O)N1C[C@@H](F)C[C@H]1C#N)S(=O)(=O)Cc1ccc(-c2ccccc2)cc1	
> 23.4	> 22.4	CC(C)([C@H](N)C(=O)N1C[C@@H](F)C[C@H]1C#N)S(=O)(=O)CCCc1ccccc1	
> 23.4	> 22.4	COc1ccc(C[S+]([O-])C(C)(C)[C@H](N)C(=O)N2C[C@@H](F)C[C@H]2C#N)cc1 (stereo partly drawn)	
	> 22.4	CC(=O)Nc1ccc(CS(=O)(=O)C(C)(C)[C@H](N)C(=O)N2C[C@@H](F)C[C@H]2C#N)cc1	
	> 22.4	CC(C)([C@H](N)C(=O)N1C[C@@H](F)C[C@H]1C#N)S(=O)(=O)Cc1ccc(C#N)cc1	Activity (Canis familiaris): Toxic
	> 22.4	CC(C)([C@H](N)C(=O)N1C[C@@H](F)C[C@H]1C#N)S(=O)(=O)Cc1cccc(Oc2ccccc2)c1	
> 23.4	> 22.4	Cc1ccc(CS(=O)(=O)C(C)(C)[C@H](N)C(=O)N2C[C@@H](F)C[C@H]2C#N)cc1	
	> 22.4	COc1ccccc1CS(=O)(=O)C(C)(C)[C@H](N)C(=O)N1C[C@@H](F)C[C@H]1C#N	
> 23.4		CC(C)([C@H](N)C(=O)N1C[C@@H](F)C[C@H]1C#N)S(=O)(=O)Cc1ccc(S(C)(=O)=O)cc1	bioavailability [1]: < 5%
	> 22.4	CC(C)(SCc1ccccn1)[C@H](N)C(=O)N1C[C@@H](F)C[C@H]1C#N	
